Measurements reported in patent US12030891B2, “Xanthonic compounds and their use as antifouling agents” (CIIMAR—CENTRO INTERDISCIPLINAR DE INVESTIGACAO MARINHA E …, priority 2018, dated 2024).

Tests used:
Artemia salina = Artemia salina lethality bioassay; assay type: in vivo; conditions: even at 50 μM, 48 h of exposure
Procedure: General toxicity to non-target species was evaluated using the brine shrimp (Artemia salina) lethality test (Meyer et al., 1982). A. salina cysts were allowed to hatch in nutrient-enriched seawater for approximately 48 hours at 25° C. Newly hatched instar I nauplii were harvested for toxicity test performed in 96-wells microplates with eight replicates per condition and 15-20 nauplii per well. Test solutions of the most promising sulfated antifouling compounds (50 and 25 μM) were prepared in filtered seawater. K2Cr2O7 (13.6 μM) was included as positive control and DMSO as negative control. Percentage of mortality was determined at 48 h of exposure.

[1] = Luminescent Vibrio fischeri ecotoxicity assay (ISO11348); assay type: cell-based; conditions: luminescent Vibrio fischeri bacteria (NRRL-B-11177), contact time of 30 min, read-out: LC50 (inhibition of light radiation emitted)
Procedure: Luminescent Vibrio fischeri ecotoxicity assessment (ISO11348) was performed by IK4 TEKNIKER accordingly to the EU hazard assessment of substances and European Ecolabel (ISO 113482). Luminescent Vibrio fischeri bacteria test (NRRL-B-11177) was used as a standard test to evaluate the ecotoxicity of the most promising AF compounds. Vibrio fischeri bacteria from HACH-LANGE GmbH were grown in laboratory in standard conditions according to guidelines and exposed to a dilution serial of each compound (1000, 500, 250, 125, 62.5 mg/L). After 5, 15 and 30 min of exposure, the light emitted as a by-product of Vibrio fischeri cellular respiration was measured at 490 nm. Any inhibition of cellular activity results in a decreased rate of respiration and a corresponding decrease in the rate of luminescence. The decrease of bacterial luminescence measured after 5, 15 or 30 min of exposition was used as test endpoint. Luminescence was measured using a LUMIStox photometer from DR LANGE, after a contact time of 15 min and 30 min at 15±1° C., taking into account a correction factor, fk, which is a measure of intensity change of control samples during the exposure time.
The pH of all samples was within the interval 6.0-8.5. A 2% solution of sodium chloride (NaCl) in deionized water (20 g/L) was used as dilution medium and K2Cr2O7 11.3 μg·mL^−1) was used as positive control.

[2] = system: Phaeodactylum tricornutum; experiment: Algae growth inhibition test (OECD 201); assay type: cell-based
Procedure: This test was executed using […], which contains all the material necessary to perform growth inhibition tests with the marine diatom Phaeodactylum Tricornutum. The species of alga Phaeodactylum Tricornutum, were incubated with the testing leaching samples, for 72 hours, in disposable cells of 10 cm path-length. […] This terminology is used instead of the standard EC50 when the test material is not completely soluble at the test treat rates.

Daphnia magna = experiment: Daphnia acute immobilization test (OECD 202); assay type: in vivo
Procedure: This test was performed using DAPHTOXKIT F MAGNATM. Daphnia magna are commonly known as water fleas, due to their jumping swimming resemblance to the movement of the fleas. Its short life span and reproductive capabilities make it an ideal organism for analytical use.
The swimming capability of Daphnia Magna was assessed after 48 hours of exposure to the diluted testing samples. The Daphnia were bred in the laboratory and should be no more than 24 hours old. The number of immobilized Daphnia was registered at 24 hours and 48 hours, for the calculation of EL50 and comparison with the control values. The EL50 is the effective concentration of the sample that is expected to cause immobilization to 50% of Daphnia.
Note that for this toxicity test, the leaching was obtained only from the WAF method test using the samples and Daphnia's mineral medium as […] because standard seawater is harmful to Daphnia.

[3] = system: Mytilus galloprovincialis larvae; experiment: Anti-settlement bioassay on xanthonic based marine coatings; assay type: in vivo; conditions: for reduction in the larvae settlement: incorporated in polyurethane (PU) marine paint at 2 wt %; for reduction of larval settlement: polyurethane based marine paint coating (1.7 wt. %)
Procedure: None instead, and depending on the xanthonic chemical functionalities and density, minor adjustments on those proportions were performed, in order to maintain the main coatings properties (e.g. curing time and adhesion). In addition, and to promote the compatibility and homogeneity of the antifoulants in the corresponding polymeric formulations, a prior dissolution step, in accurate pure and dehumidified organic solvents, may be comprised, followed by its addition and blending to the paint components system. The selection and content of the organic solvent must also rely on its compatibility with the components of each polymeric system.
The antifouling effectiveness of xanthonic based marine coating formulations was assessed by an in vivo anti-settlement bioassay on coated culture multiwell plates, using Mytilus galloprovincialis adhesive mussel plantigrades larvae as target species.

[4] = Leaching test of antifoulant from coatings (adapted from ISO15181); assay type: physicochemical; conditions: PU coating, 45 days submerged in artificial seawater

With `COc1cc(CO)c2c(=O)c3ccccc3oc2c1OC` [XA12, 1-(hydroxymethyl)-3,4-dimethoxy-9H-xanthen-9-one] the “toxicity to Artemia salina nauplii” value (Artemia salina) was “non-toxic effects”.
With `COc1cc(CNCCN2CCOCC2)c2c(=O)c3ccccc3oc2c1OC` [XA15, 3,4-dimethoxy-1-(((2-morpholinoethyl)amino)methyl)-9H-xanthen-9-one] the “toxicity to Artemia salina nauplii” value (Artemia salina) was “non-toxic effects”.
With `CC1(C)CCc2cc3c(=O)c4ccccc4oc3c(O)c2O1` [XP13, 12-hydroxy-2,2-dimethyl-3,4-dihydro-2H,6H-pyrano[3,2-b]xanthen-6-one] the 50% inhibition of luminescence concentration (EC50) at 30 min [1] was over 237 µg/mL and the “toxicity to Artemia salina nauplii” value (Artemia salina) was “non-toxic effects”.
For `COc1cc(C=O)c2c(=O)c3ccccc3oc2c1OC` [XA11, 3,4-dimethoxy-9-oxo-9H-xanthene-1-carbaldehyde], the “toxicity to Artemia salina nauplii” value (Artemia salina) was “non-toxic effects”.
In the case of `COc1cc(CN2CCc3c(N)cccc3C2)c2c(=O)c3ccccc3oc2c1OC` [XA20, 1-((5-amino-3,4-dihydroisoquinolin-2(1H)-yl)methyl)-3,4-dimethoxy-9H-xanthen-9-one], the “EL50 (72 h) alga growth inhibition” value [2] is reported as over 125 µg/mL, the 50% inhibition of luminescence concentration (EC50) at 30 min [1] is reported as over 300 µg/mL and the “EL50 (48 h) immobility” value (Daphnia magna) is reported as over 300 µg/mL.
With `COc1cc(CN2CCN(CCO)CC2)c2c(=O)c3ccccc3oc2c1OC` [XA18, 1-((4-(2-hydroxyethyl)piperazin-1-yl)methyl)-3,4-dimethoxy-9H-xanthen-9-one] the “toxicity to Artemia salina nauplii” value (Artemia salina) was “non-toxic effects”.
For `COc1cc(C(Br)Br)c2c(=O)c3ccccc3oc2c1OC` [XA14, 1-(dibromomethyl)-3,4-dimethoxy-9H-xanthen-9-one], the “toxicity to Artemia salina nauplii” value (Artemia salina) was “non-toxic effects”.
With `COC(=O)COc1ccc2c(=O)c3ccccc3oc2c1OCC(=O)OC` [D3,4 OCH3X, dimethyl 2,2′-((9-oxo-9H-xanthene-3,4-diyl)bis(oxy))diacetate] the “toxicity to Artemia salina nauplii” value (Artemia salina) was “non-toxic effects”.
For `O=c1c2ccccc2oc2c(O)c(O)ccc12` [3,4dOHx, 3,4-dihydroxy-9H-xanthen-9-one], the “EL50 (72 h) alga growth inhibition” value [2] was over 100 µg/mL, the “reduction in the larvae settlement” value ([3]; after 40 h) was “about 80%” and the “reduction in the larvae settlement” value ([3]; after the first 15 h) was 55%. For the same compound, the 50% inhibition of luminescence concentration (EC50) at 30 min [1] was over 750 µg/mL, the “incorporated antifoulant leached out of the polymeric matrix” value [4] was 0.008% and the “toxicity to Artemia salina nauplii” value (Artemia salina) was “non-toxic effects”.
In the case of `COc1cc(CN2CCCCC2)c2c(=O)c3ccccc3oc2c1OC` [XA22, 3,4-dimethoxy-1-(piperidin-1-ylmethyl)-9H-xanthen-9-one], the “toxicity to Artemia salina nauplii” value (Artemia salina) is reported as “non-toxic effects”.
For `O=C(O)COc1ccc2c(=O)c3ccccc3oc2c1OCC(=O)O` [D3,4 COOHX, 2,2′-((9-oxo-9H-xanthene-3,4-diyl)bis(oxy))diacetic acid], the “toxicity to Artemia salina nauplii” value (Artemia salina) was “non-toxic effects”.
With `COc1cc(C)c2c(=O)c3ccccc3oc2c1OC` [XA13, 3,4-dimethoxy-1-methyl-9H-xanthen-9-one] the “reduction of larval settlement” value ([3]; after 40 h) was 29% and the “reduction of larval settlement” value ([3]; first 15 h) was 50%.
